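These data come from cells grown in 96-well plates and exposed to compound for 48 hours at five concentrations. TGI denotes the concentration required for complete inhibition of growth.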
Tests used:
Assay in all cases: NCI tumour cell line growth inhibition, 48 h
786-0 renal = tested on: 786-0 renal
A498 renal = tested on: A498 renal
BT-549 breast = tested on: BT-549 breast
CCRF-CEM leukemia = tested on: CCRF-CEM leukemia
EKVX NSCLC = tested on: EKVX NSCLC
HOP-62 NSCLC = tested on: HOP-62 NSCLC
HS 578T breast = tested on: HS 578T breast
MCF7 breast = tested on: MCF7 breast
MDA-N = tested on: MDA-N
NCI-H460 lung = tested on: NCI-H460 lung
OVCAR-4 ovarian = tested on: OVCAR-4 ovarian
OVCAR-5 ovarian = tested on: OVCAR-5 ovarian
OVCAR-8 ovarian = tested on: OVCAR-8 ovarian
SF-268 CNS = tested on: SF-268 CNS
SK-MEL-5 melanoma = tested on: SK-MEL-5 melanoma
SN12C renal = tested on: SN12C renal
SNB-75 CNS = tested on: SNB-75 CNS
SW-620 colon = tested on: SW-620 colon
UACC-62 melanoma = tested on: UACC-62 melanoma
UO-31 renal = tested on: UO-31 renal

SMILES	TGI (786-0 renal) [µM]	TGI (A498 renal) [µM]	TGI (BT-549 breast) [µM]	TGI (CCRF-CEM leukemia) [µM]	TGI (EKVX NSCLC) [µM]	TGI (HOP-62 NSCLC) [µM]	TGI (HS 578T breast) [µM]	TGI (MCF7 breast) [µM]	TGI (MDA-N) [µM]	TGI (NCI-H460 lung) [µM]	TGI (OVCAR-4 ovarian) [µM]	TGI (OVCAR-5 ovarian) [µM]	TGI (OVCAR-8 ovarian) [µM]	TGI (SF-268 CNS) [µM]	TGI (SK-MEL-5 melanoma) [µM]	TGI (SN12C renal) [µM]	TGI (SNB-75 CNS) [µM]	TGI (SW-620 colon) [µM]	TGI (UACC-62 melanoma) [µM]	TGI (UO-31 renal) [µM]
COc1ccc(N=NC(=O)NC(CC(C)C)C(=O)NC(C)C(=O)O)cc1 (stereo not given)	> 100	> 100	> 100	> 100	> 100	> 100	> 100	> 100	> 100	> 89	> 100	> 100	> 100	> 100	> 100	> 100	> 100	> 100	> 100	> 26.6
CCOC(=O)c1nc2cc(F)c(N3CCOCC3)cc2[nH]c1=O	> 100	> 100	> 100	> 100	> 100	> 100	> 100	> 100	> 100	> 100	> 100	> 100	> 100	> 100	> 100	> 100	> 100	> 100	> 100	> 100
Cc1c2cccc-2c(OCCO)cc2c3ccccc3n(C)c12	16.2	24	13.4	7.53	8.69	16.1	7.15	20.8	16.1	18.3	15.1	16.1	10.1	25.6	5.77	14.4	35.5	67.3	17.5	10.6
COc1cccc2nc3c(C(=O)NCCN(C)C)cccc3cc12	12.5	2.98	10.7	61.3	9.64	7.1	7.5	8	8.42	4.44	4.8	6.5	3.07	15.5	3.09	8.35	14.4	4.83	7.77	2.99
COCOC1C=CCCCC2=CC(C)=C(CC1)O2 (stereo not given)	> 100	> 100	> 100	> 100	> 100	> 100	> 100	> 100	> 100	> 100	> 100	> 100	> 100	> 100	> 100	> 100	> 100	> 100	> 100	> 100
[N-]=[N+]=CC(=O)OC1Cc2ccccc2C1	> 100	> 100	> 100	> 31.6	> 100	> 100	> 100	> 100	> 100	> 100	> 100	> 100	> 100	> 100	> 100	> 100	> 100	> 100	> 100	35.8
CC1C=CN(N(C)C)C2=C1C(=O)c1cnccc1C2=O (stereo not given)	0.538	2.66	1.66	5.01	2.07	1.42	3.82	0.986	0.278	0.389	2.03	2.83	3.67	5.21	0.894	0.558	0.868	1.83	0.342	0.39
CCOC(=O)[C@H](C)OC(=O)[C@@](C)(NC(=O)c1ccccc1C(=O)OC)[C@@H]1NC=C(C(=O)OC)CS1	> 100	> 100	> 100	63.9	> 100	> 100	> 100	> 100	64.6	> 100	> 100	> 100	> 100	> 100	> 100	> 100	> 100	> 100	> 100	> 100
